Converted amounts (≈) assume the structure as drawn.
tested on: Mycobacterium tuberculosis H37Rv strains; experiment: In vitro assay for antimicrobial susceptibility (microplate Alamar blue MIC); type: cell-based; conditions: Mycobacterium tuberculosis, H37RV, 7H9, Alamar blue, inhibition ≧90%; read-out: MIC (μg/mL) against H37Rv

Row | Compound | MIC [µg/mL]
1 | FC(F)(F)Oc1ccc(-n2c3c/c(=N\C4CCOCC4)c(Nc4ncccn4)cc-3nc3ccccc32)cc1 [TBI-830, 5-(4-Trifluoromethoxyphenyl)-3-(4-tetrahydropyranyl)imino-2-(pyrimidin-2-yl)amino-3,5-dihydrophenazine] | 0.014 (≈ 0.0263 µM)
2 | Clc1ccc(-n2c3c/c(=N\C4CCOCC4)c(Nc4ncccn4)cc-3nc3ccccc32)cc1 [TBI-860, 5-(4-Chlorophenyl)-3-(4-tetrahydropyranyl)imino-2-(pyrimidin-2-yl)amino-3,5-dihydrophenazine] | 0.029 (≈ 0.06 µM)

same assay, conditions: Mycobacterium tuberculosis, H37RV, in vitro, Mycobacterium tuberculosis H37Rv strains; read-out: MIC (μg/mL) against H37Rv

Row | Compound | MIC [µg/mL]
3 | Cc1cncc(Nc2cc3nc4ccccc4n(-c4ccc(C(F)(F)F)cc4)c-3c/c2=N\C2CCC(O)CC2)c1 (centres unmarked) [TBI-727, 5-(4-Trifluoromethylphenyl)-3-(4-hydroxycyclohexyl)imino-2-(5-methyl-3-pyridyl)amino-3,5-dihydrophenazine] | 0.405 (≈ 0.745 µM)
4 | COc1ncccc1Nc1cc2nc3ccccc3n(-c3ccc(C(F)(F)F)cc3)c-2c/c1=N\C1CCC1 [TBI-728, 5-(4-Trifluoromethylphenyl)-3-cyclobutylimino-2-(2-methoxy-3-pyridyl)amino-3,5-dihydrophenazine] | 0.033 (≈ 0.064 µM)
5 | Cc1ncccc1Nc1cc2nc3ccccc3n(-c3ccc(C(F)(F)F)cc3)c-2c/c1=N\C1CC1 [TBI-729] | 0.186 (≈ 0.383 µM)
6 | CC(C)/N=c1\cc2n(-c3cccc(C(F)(F)F)c3)c3ccccc3nc-2cc1Nc1cccnc1 [TBI-730, 5-(3-Trifluoromethylphenyl)-3-(1-methylethyl)imino-2-(3-pyridyl)amino-3,5-dihydrophenazine] | 0.205 (≈ 0.433 µM)
7 | COc1ccc(Nc2cc3nc4ccccc4n(-c4ccc(C(F)(F)F)cc4)c-3c/c2=N\C(C)C)cn1 [TBI-731] | 0.348 (≈ 0.691 µM)
8 | COc1ccc(Nc2cc3nc4ccccc4n(-c4ccc(C(F)(F)F)cc4)c-3c/c2=N\C2CCCCC2)cn1 [TBI-732] | 0.113 (≈ 0.208 µM)
9 | COc1ccc(Nc2cc3nc4ccccc4n(-c4ccc(C(F)(F)F)cc4)c-3c/c2=N\C2CCOCC2)cn1 [TBI-733, 5-(4-Trifluoromethylphenyl)-3-(4-tetrahydropyranyl)imino-2-(6-methoxy-3-pyridyl)amino-3,5-dihydrophenazine] | 0.111 (≈ 0.203 µM)
10 | Cc1ncccc1Nc1cc2nc3ccccc3n(-c3ccc(C(F)(F)F)cc3)c-2c/c1=N\C1CCC1 [TBI-734, 5-(4-Trifluoromethylphenyl)-3-cyclobutylimino-2-(2-methyl-3-pyridyl)amino-3,5-dihydrophenazine] | 0.014 (≈ 0.028 µM)
11 | COc1ccc(Nc2cc3nc4ccccc4n(-c4ccc(C(F)(F)F)cc4)c-3c/c2=N\C2CCC(OC)CC2)cn1 (centres unmarked) [TBI-735, 5-(4-Trifluoromethylphenyl)-3-(4-methoxycyclohexyl)imino-2-(6-methoxy-3-pyridyl)amino-3,5-dihydrophenazine] | 0.186 (≈ 0.324 µM)
12 | COc1ccc(Nc2cc3nc4ccccc4n(-c4ccc(C(F)(F)F)cc4)c-3c/c2=N\C2CC2)cn1 [TBI-736, 5-(4-Trifluoromethylphenyl)-3-cyclopropylimino-2-(6-methoxy-3-pyridyl)amino-3,5-dihydrophenazine] | 0.224 (≈ 0.447 µM)
13 | COc1ccc(Nc2cc3nc4ccccc4n(-c4ccc(C(F)(F)F)cc4)c-3c/c2=N\C2CCC2)cn1 [TBI-737, 5-(4-Trifluoromethylphenyl)-3-cyclobutylimino-2-(6-methoxy-3-pyridyl)amino-3,5-dihydrophenazine] | 0.119 (≈ 0.231 µM)
14 | Cc1ccc(Nc2cc3nc4ccccc4n(-c4ccc(C(F)(F)F)cc4)c-3c/c2=N\C2CCC2)cn1 [TBI-738, 5-(4-Trifluoromethylphenyl)-3-cyclobutylimino-2-(6-methyl-3-pyridyl)amino-3,5-dihydrophenazine] | 0.029 (≈ 0.0581 µM)
15 | COC1CCC(/N=c2\cc3n(-c4ccccc4C(F)(F)F)c4ccccc4nc-3cc2Nc2cccnc2)CC1 (centres unmarked) [TBI-739] | 0.239 (≈ 0.44 µM)
16 | COCC(C/N=c1\cc2n(-c3ccc(C(F)(F)F)cc3)c3ccccc3nc-2cc1Nc1cccnc1OC)OC (centres unmarked) [TBI-744] | 0.059 (≈ 0.105 µM)
17 | CC(C)/N=c1\cc2n(-c3cccc(Cl)c3)c3ccccc3nc-2cc1Nc1cccnc1 [TBI-810, 5-(3-Chlorophenyl)-3-(1-methylethyl)imino-2-(3-pyridyl)amino-3,5-dihydrophenazine] | 0.103 (≈ 0.234 µM)
18 | O[C@H]1CC[C@H](/N=c2\cc3n(-c4cccc(Cl)c4)c4ccccc4nc-3cc2Nc2cccnc2)CC1 [TBI-811, 5-(3-Chlorophenyl)-3-(1′,4′-trans-4-hydroxycyclohexyl)imino-2-(3-pyridyl)amino-3,5-dihydrophenazine] | 0.5 (≈ 1.01 µM)
19 | Clc1cccc(-n2c3c/c(=N\C4CC4)c(Nc4cccnc4)cc-3nc3ccccc32)c1 [TBI-812, 5-(3-Chlorophenyl)-3-cyclopropylimino-2-(3-pyridyl)amino-3,5-dihydrophenazine] | 0.013 (≈ 0.0297 µM)
20 | Clc1cccc(-n2c3c/c(=N\C4CCC4)c(Nc4cccnc4)cc-3nc3ccccc32)c1 [TBI-814, 5-(3-Chlorophenyl)-3-cyclobutylimino-2-(3-pyridyl)amino-3,5-dihydrophenazine] | 0.04 (≈ 0.0885 µM)

Row | Compound | MIC [µg/mL]
21 | COc1ncccc1Nc1cc2nc3ccccc3n(-c3cccc(Cl)c3)c-2c/c1=N\C1CCOCC1 [TBI-822, 5-(3-Chlorophenyl)-3-(4-tetrahydropyranyl)imino-2-(2-methoxy-3-pyridyl)amino-3,5-dihydrophenazine] | 0.125 (≈ 0.244 µM)
22 | COc1ncccc1Nc1cc2nc3ccccc3n(-c3cccc(Cl)c3)c-2c/c1=N\C1CC1 [TBI-823, 5-(3-Chlorophenyl)-3-cyclopropylimino-2-(2-methoxy-3-pyridyl)amino-3,5-dihydrophenazine] | 0.03 (≈ 0.0641 µM)
23 | COc1ncccc1Nc1cc2nc3ccccc3n(-c3cccc(Cl)c3)c-2c/c1=N\C1CCC1 [TBI-824, 5-(3-Chlorophenyl)-3-cyclobutylimino-2-(2-methoxy-3-pyridyl)amino-3,5-dihydrophenazine] | 0.06 (≈ 0.124 µM)
24 | COCC(COC)/N=c1\cc2n(-c3cccc(Cl)c3)c3ccccc3nc-2cc1Nc1cccnc1OC [TBI-825, 5-(3-Chlorophenyl)-3-(1,3-dimethoxyisopropyl)imino-2-(2-methoxy-3-pyridyl)amino-3,5-dihydrophenazine] | 0.125 (≈ 0.236 µM)
25 | COCC(C/N=c1\cc2n(-c3cccc(Cl)c3)c3ccccc3nc-2cc1Nc1cccnc1OC)OC (centres unmarked) [TBI-826, 5-(3-Chlorophenyl)-3-(2,3-dimethoxy-1-propyl)imino-2-(2-methoxy-3-pyridyl)amino-3,5-dihydrophenazine] | 0.125 (≈ 0.236 µM)
26 | COC1CCC(/N=c2\cc3n(-c4ccc(OC(F)(F)F)cc4)c4cc(F)ccc4nc-3cc2Nc2ccc(C)nc2)CC1 (centres unmarked) [TBI-852, 7-Fluoro-5-(4-trifluoromethoxyphenyl)-3-(4-methoxycyclohexyl)imino-2-(6-methyl-3-pyridyl)amino-3,5-dihydrophenazine] | 0.024 (≈ 0.0406 µM)
27 | Cc1ccc(Nc2cc3nc4ccc(F)cc4n(-c4ccc(OC(F)(F)F)cc4)c-3c/c2=N\C2CCCCC2)cn1 [TBI-853, 7-Fluoro-5-(4-trifluoromethoxyphenyl)-3-cyclohexylimino-2-(6-methyl-3-pyridyl)amino-3,5-dihydrophenazine] | 0.025 (≈ 0.0445 µM)
28 | Cc1ccc(Nc2cc3nc4ccc(F)cc4n(-c4ccc(OC(F)(F)F)cc4)c-3c/c2=N\C(C)C)cn1 [TBI-854, 7-Fluoro-5-(4-trifluoromethoxyphenyl)-3-(1-methylethyl)imino-2-(6-methyl-3-pyridyl)amino-3,5-dihydrophenazine] | 0.067 (≈ 0.128 µM)
29 | COc1ncccc1Nc1cc2nc3ccc(F)cc3n(-c3ccc(OC(F)(F)F)cc3)c-2c/c1=N\C1CCOCC1 [TBI-855] | 0.193 (≈ 0.333 µM)
30 | COc1ncccc1Nc1cc2nc3ccc(F)cc3n(-c3ccc(OC(F)(F)F)cc3)c-2c/c1=N\C1CCCCC1 [TBI-856, 7-Fluoro-5-(4-trifluoromethoxyphenyl)-3-cyclohexylimino-2-(2-methoxy-3-pyridyl)amino-3,5-dihydrophenazine] | 0.029 (≈ 0.0502 µM)
31 | COc1ncccc1Nc1cc2nc3ccc(F)cc3n(-c3ccc(OC(F)(F)F)cc3)c-2c/c1=N\C1CC1 [TBI-857] | 0.045 (≈ 0.084 µM)
32 | COc1ncccc1Nc1cc2nc3ccc(F)cc3n(-c3ccc(OC(F)(F)F)cc3)c-2c/c1=N\C(C)C [TBI-858, 7-Fluoro-5-(4-trifluoromethoxyphenyl)-3-(1-methylethyl)imino-2-(2-methoxy-3-pyridyl)amino-3,5-dihydrophenazine] | 0.08 (≈ 0.149 µM)
33 | COc1ncccc1Nc1cc2nc3cc(F)ccc3n(-c3ccc(Cl)cc3)c-2c/c1=N\C1CC1 [TBI-859, 8-Fluoro-5-(4-chlorophenyl)-3-cyclopropylimino-2-(2-methoxy-3-pyridyl)amino-3,5-dihydrophenazine] | 0.015 (≈ 0.0309 µM)
34 | COc1ncccc1Nc1cc2nc3cc(F)ccc3n(-c3ccc(OC(F)(F)F)cc3)c-2c/c1=N\C1CCC(OC)CC1 (centres unmarked) [TBI-861, 8-Fluoro-5-(4-trifluoromethoxyphenyl)-3-(4-methoxycyclohexyl)imino-2-(2-methoxy-3-pyridyl)amino-3,5-dihydrophenazine] | 0.058 (≈ 0.0955 µM)
35 | COc1ncccc1Nc1cc2nc3cc(F)ccc3n(-c3ccc(OC(F)(F)F)cc3)c-2c/c1=N\C1CCCCC1 [TBI-862, 8-Fluoro-5-(4-trifluoromethoxyphenyl)-3-cyclohexylimino-2-(2-methoxy-3-pyridyl)amino-3,5-dihydrophenazine] | 0.088 (≈ 0.152 µM)
36 | Cc1ccc(Nc2cc3nc4cc(F)ccc4n(-c4ccc(OC(F)(F)F)cc4)c-3c/c2=N\C(C)C)cn1 [TBI-863, 8-Fluoro-5-(4-trifluoromethoxyphenyl)-3-(1-methylethyl)imino-2-(6-methyl-3-pyridyl)amino-3,5-dihydrophenazine] | 0.061 (≈ 0.117 µM)
37 | Cc1ccc(Nc2cc3nc4cc(F)ccc4n(-c4ccc(OC(F)(F)F)cc4)c-3c/c2=N\C2CC2)cn1 [TBI-864, 8-Fluoro-5-(4-trifluoromethoxyphenyl)-3-cyclopropylimino-2-(6-methyl-3-pyridyl)amino-3,5-dihydrophenazine] | 0.057 (≈ 0.11 µM)

same assay, conditions: in vitro, Mycobacterium tuberculosis H37Rv strains

Row | Compound | MIC (μg/mL) against H37Rv [µg/mL]
38 | COc1ncccc1Nc1cc2nc3ccc(F)cc3n(-c3ccc(Cl)cc3)c-2c/c1=N\C(C)C [TBI-741, 5-(4-Chlorophenyl)-3-(1-methylethyl)imino-2-(2-methoxy-3-pyridyl)amino-7-fluoro-3,5-dihydrophenazine] | 0.035 (≈ 0.0717 µM)

— US8716292B2, “Riminophenazines with 2-(heteroaryl)amino substituents and their anti-microbial activity” (priority 2010, dated 2014)
